Reference: patent publication US20240269135A1, “METHODS OF TREATING BREAST CANCER” (ASTRAZENECA AB, priority 2021, published 2024)

Tests used:
[1] = OlympiA exposure to study treatment, dose intensity, dose reductions and treatment discontinuations; assay type: in vivo, human; conditions: safety analysis set; 300 mg bd, N = 911
Method: A total of 1815 patients (911 in the olaparib-group and 904 in the placebo-group) were included in the safety analysis. The median number of days at 300 mg twice-daily protocol dose was 338 with percentage of intended dose being 94.8% in the olaparib-group, and 358 days and 98.9% in the placebo-group (Tables S11 to S13 in the Supplementary Appendix). Early treatment discontinuations, including discontinuations due to recurrence, occurred in 236 (25.9%) of the olaparib-group and 187 (20.7%) of the placebo-group (Figure S4 in the Supplementary Appendix).
In the olaparib-group, 228 patients (25.0%) required a dose reduction compared to 47 (5.2%) in the placebo-group. Adverse events requiring permanent discontinuation of the trial drug occurred in 90 patients (9.9%) in the olaparib-group and 38 patients (4.2%) in the placebo-group. […] (Table S15, S16 in the Supplementary Appendix). […] Any differences between the treatment arms are not considered clinically significant (Figure S5 in the Supplementary Appendix).

[2] = system: patients with HER2-negative early breast cancer with BRCA1/2 germline pathogenic/likely pathogenic variants; experiment: OlympiA randomized double-blind phase 3 trial: invasive-disease-free, distant-disease-free and overall survival (incl. subgroup and sensitivity analyses); assay type: in vivo
From the text: We conducted a randomized double-blind phase 3 trial involving patients with HER2-negative early breast cancer with BRCA1/2 germline pathogenic/likely pathogenic variants (gBRCA-P/LP-variant), and high-risk clinico-pathological factors, after local treatment and (neo)adjuvant chemotherapy. […] The primary endpoint was invasive disease-free-survival.
The trial was designed and conducted as a collaborative partnership between the Breast International Group (BIG) and the sponsors NRG Oncology in the United States (US) and AstraZeneca (AZ) outside the US.
Patients eligible for the trial harbored a gBRCA-P/LP variant defined by local or central testing and high-risk, HER2-negative primary breast cancer following definitive local treatment and neoadjuvant or adjuvant chemotherapy. […] Details of gBRCA-P/LP variant screening, local and central gBRCA-P/LP variant testing, and concordance is provided in Figure S2 and Table S2/S3 in Supplementary Appendix. Any gBRCA-P/LP variant eligibility adjudication was conducted by the trial Genetics Advisory Committee. Local estrogen-receptor, progesterone-receptor and HER2 testing results were used for determination of the hormone-receptor status (cut-point for positive was ≥1%) for stratification and for hormone-receptor-positive specific stage criteria for eligibility (details for receptor status central review and concordance for all patients recruited outside China are provided in Supplementary Appendix Tables S4 and S5).
Patients were required to have completed all local therapy including radiotherapy, which interacts with PARP inhibition, at least 2 and not more than 12 weeks before study entry. Patients had completed at least 6 cycles of neoadjuvant or adjuvant chemotherapy containing anthracyclines, taxanes or both agents. Platinum chemotherapy was allowed. Adjuvant bisphosphonates and adjuvant endocrine therapy in patients with hormone-receptor positive disease were given according to institutional guidelines. No chemotherapy after surgery was allowed in patients who received neoadjuvant chemotherapy.
Patients were stratified by hormone-receptor status (positive versus negative), NACT versus ACT and use of platinum chemotherapy for current breast cancer (yes versus no).
Following randomization, medical history and physical examination were performed on a 4-weekly basis for 24 weeks and then 3-monthly through year 2, 6-monthly assessments in years 3 to 5 and annually thereafter. […] Patients had mammogram and/or breast magnetic-resonance-imaging annually.
After a first event, patients were followed for first distant relapse (if not the first event), CNS metastases, loco-regional relapses, contralateral breast cancer, second primary malignancies and survival status.
In accordance with the standardized definitions for efficacy end points (STEEP) system,^21 the primary endpoint of invasive disease-free survival was defined as the time from randomization until the date of first occurrence of one of the following events: ipsilateral invasive breast tumor, locoregional invasive disease, distant recurrence, contralateral invasive breast cancer, second primary invasive cancer or death from any cause. Patients without a documented invasive disease-free survival event were censored at the date they were last known to be disease-free.
Efficacy analyses were based on the intention-to-treat (ITT) population. Survival functions were estimated by Kaplan-Meier method. The stratified Cox proportional-hazards model was used to estimate the hazard ratio and confidence intervals, the comparison of survival between treatment arms was tested by stratified log-rank test. […] Safety was assessed in the population who received at least one dose of study medication.

[3] = ITT, olaparib-group N=921, Kaplan-Meier, median follow-up 2.5 years
[4] = all deaths, ITT, olaparib N=921
[5] = percentage of the 59 deaths in the olaparib-group

## O=C(c1cc(Cc2n[nH]c(=O)c3ccccc23)ccc1F)N1CCN(C(=O)C2CC2)CC1 [Olaparib, 4-[(3-{[4-(cyclopropane-carbonyl)piperazine-1-yl]carbonyl}-4-fluorophenyl)methyl]-2H-phthalazin-1-one]
[1]
  Number of patients with a dose reduction: 1 dose reduction (%): 170 (18.7) patients (%)
  Number of patients with a dose reduction: 2 dose reductions (%): 57 (6.3) patients (%)
  Number of patients with a dose reduction: 3 or more dose reductions (%): 1 (0.1) patients (%)
  Patients with a dose reduction (%): 228 (25.0) patients (%)
  Patients with no dose reduction (%): 683 (75.0) patients (%)
  Reason for reduction: Administrative reasons (%): 2 (0.2) patients (%)
  Reason for reduction: Adverse event (%): 222 (24.4) patients (%)
  Reason for reduction: Dosing error (%): 6 (0.7) patients (%)
  Reason for reduction: Other (%): 0 (0.0) patients (%)
  Total number of dose reductions: 287
[2]; ITT, olaparib N=921
  Deaths without a prior IDFS event: 2 no. of patients
  IDFS events: 106 no. of patients
  Total number of deaths: 59 no. of patients
[2]; [3]
  3-year distant-disease-free survival: 87.5%
  3-year invasive-disease-free survival: 85.9%
[2]; ITT, 95% CI 3.0%, 11.1%
  difference in 3-year distant-disease-free survival, olaparib vs placebo: 7.1%
[2]; ITT, 95% CI 4.5%, 13.0%
  difference in 3-year invasive-disease-free survival, olaparib vs placebo: 8.8%
[2]; Overall
  Invasive disease free survival Events (%): 106 (11.5)/178 (19.5) events (%)
[2]; [4]
  Primary cause of death: Adverse event: 1 no. of patients
  Primary cause of death: Breast cancer: 55 no. of patients
  Primary cause of death: Other: 3 no. of patients
[2]; [5]
  Primary cause of death: Adverse event: 1.7%
  Primary cause of death: Breast cancer: 93.2%
  Primary cause of death: Other: 5.1%
[2]; subgroup Age 50-64 years at randomisation
  Invasive disease free survival Events (%): 22 (11.4)/41 (19.5) events (%)
[2]; subgroup Age < 50 years at randomisation
  Invasive disease free survival Events (%): 79 (11.3)/133 (19.8) events (%)
[2]; subgroup Age ≥ 65 years at randomisation
  Invasive disease free survival Events (%): 5 (17.2)/4 (12.5) events (%)
[2]; subgroup BRCA1/2 both with no prior platinum therapy for current breast cancer
  Invasive disease free survival Events (%): 0 (0.0)/0 (0.0) events (%)
[2]; subgroup BRCA1/2 both with prior platinum therapy for current breast cancer
  Invasive disease free survival Events (%): 0/0 (0.0) events (%)
[2]; subgroup BRCA1 with no prior platinum therapy for current breast cancer
  Invasive disease free survival Events (%): 43 (11.2)/91 (24.0) events (%)
[2]; subgroup BRCA1 with prior platinum therapy for current breast cancer
  Invasive disease free survival Events (%): 27 (15.5)/35 (19.6) events (%)
[2]; subgroup BRCA2 with no prior platinum therapy for current breast cancer
  Invasive disease free survival Events (%): 18 (10.2)/30 (17.8) events (%)
[2]; subgroup BRCA2 with prior platinum therapy for current breast cancer
  Invasive disease free survival Events (%): 4 (7.5)/8 (20.0) events (%)
[2]; subgroup BRCA variant type: BRCA1
  Invasive disease free survival Events (%): 70 (12.5)/126 (22.6) events (%)
[2]; subgroup BRCA variant type: BRCA1/2
  Invasive disease free survival Events (%): 0 (0.0)/0 (0.0) events (%)
[2]; subgroup BRCA variant type: BRCA2
  Invasive disease free survival Events (%): 22 (9.6)/38 (18.2) events (%)
[2]; subgroup Bilateral oophorectomy prior to first dose
  Invasive disease free survival Events (%): 14 (7.4)/38 (21.6) events (%)
[2]; subgroup Ethnicity: Hispanic or Latino
  Invasive disease free survival Events (%): 7 (20.6)/7 (29.2) events (%)
[2]; subgroup Ethnicity: Not Hispanic or Latino
  Invasive disease free survival Events (%): 88 (10.9)/153 (18.8) events (%)
[2]; subgroup Ethnicity: Not known, not recorded or refused
  Invasive disease free survival Events (%): 11 (13.4)/18 (22.8) events (%)
[2]; subgroup Geographic region: Asia Pacific and South Africa
  Invasive disease free survival Events (%): 30 (9.9)/55 (17.2) events (%)
[2]; subgroup Geographic region: Europe
  Invasive disease free survival Events (%): 62 (12.9)/95 (21.0) events (%)
[2]; subgroup Geographic region: North America
  Invasive disease free survival Events (%): 11 (9.0)/23 (17.4) events (%)
[2]; subgroup Geographic region: South America
  Invasive disease free survival Events (%): 3 (18.8)/5 (41.7) events (%)
[2]; subgroup HR status: HR+/HER2−
  Invasive disease free survival Events (%): 19 (11.3)/25 (15.9) events (%)
[2]; subgroup HR status: TNBC
  Invasive disease free survival Events (%): 87 (11.6)/153 (20.2) events (%)
[2]; subgroup HR+/HER2− with adjuvant chemotherapy
  Invasive disease free survival Events (%): 6 (9.4)/5 (7.7) events (%)
[2]; subgroup HR+/HER2− with neoadjuvant chemotherapy
  Invasive disease free survival Events (%): 13 (12.5)/20 (21.7) events (%)
[2]; subgroup Jewish descent: No, not of Ashkenazi descent
  Invasive disease free survival Events (%): 100 (11.4)/169 (19.3) events (%)
[2]; subgroup Jewish descent: Yes, of Ashkenazi descent
  Invasive disease free survival Events (%): 6 (14.6)/9 (25.0) events (%)
[2]; subgroup No bilateral oophorectomy prior to first dose
  Invasive disease free survival Events (%): 92 (12.6)/140 (18.9) events (%)
[2]; subgroup No prior platinum/ACT
  Invasive disease free survival Events (%): 28 (7.3)/57 (14.8) events (%)
[2]; subgroup No prior platinum/HR+/HER2−
  Invasive disease free survival Events (%): 13 (9.3)/22 (16.4) events (%)
[2]; subgroup No prior platinum/NACT
  Invasive disease free survival Events (%): 44 (15.1)/78 (26.8) events (%)
[2]; subgroup No prior platinum/TNBC
  Invasive disease free survival Events (%): 59 (11.1)/113 (20.8) events (%)
[2]; subgroup Primary Study Database: Breast International Group (BIG)
  Invasive disease free survival Events (%): 95 (11.7)/160 (19.9) events (%)
[2]; subgroup Primary Study Database: NRG Oncology (US)
  Invasive disease free survival Events (%): 11 (9.9)/18 (16.5) events (%)
[2]; subgroup Prior Chemo: Adjuvant
  Invasive disease free survival Events (%): 36 (7.8)/61 (13.4) events (%)
[2]; subgroup Prior Chemo: Neoadjuvant
  Invasive disease free survival Events (%): 70 (15.2)/117 (25.4) events (%)
[2]; subgroup Prior Platinum: No
  Invasive disease free survival Events (%): 72 (10.7)/135 (20.0) events (%)
[2]; subgroup Prior Platinum: Yes
  Invasive disease free survival Events (%): 34 (13.8)/43 (18.0) events (%)
[2]; subgroup Prior platinum/ACT
  Invasive disease free survival Events (%): 8 (10.3)/4 (5.7) events (%)
[2]; subgroup Prior platinum/HR+/HER2−
  Invasive disease free survival Events (%): 6 (21.4)/3 (13.0) events (%)
[2]; subgroup Prior platinum/NACT
  Invasive disease free survival Events (%): 26 (15.4)/39 (23.1) events (%)
[2]; subgroup Prior platinum/TNBC
  Invasive disease free survival Events (%): 28 (12.8)/40 (18.5) events (%)
[2]; subgroup Race: Asian
  Invasive disease free survival Events (%): 25 (9.7)/46 (16.9) events (%)
[2]; subgroup Race: Black/African-American
  Invasive disease free survival Events (%): 4 (21.1)/5 (17.2) events (%)
[2]; subgroup Race: Other
  Invasive disease free survival Events (%): 2 (11.8)/3 (20.0) events (%)
[2]; subgroup Race: White
  Invasive disease free survival Events (%): 75 (12.0)/124 (20.7) events (%)
[2]; subgroup TNBC adjuvant cohort, pN status at surgery: Node negative
  Invasive disease free survival Events (%): 13 (6.4)/22 (11.5) events (%)
[2]; subgroup TNBC adjuvant cohort, pN status at surgery: Node positive
  Invasive disease free survival Events (%): 15 (8.6)/31 (17.5) events (%)
[2]; subgroup TNBC with adjuvant chemotherapy
  Invasive disease free survival Events (%): 30 (7.6)/56 (14.4) events (%)
[2]; subgroup TNBC with neoadjuvant chemotherapy
  Invasive disease free survival Events (%): 57 (16.1)/97 (26.4) events (%)
[2]; subgroup breast surgery prior to randomisation: Breast conservation
  Invasive disease free survival Events (%): 20 (9.0)/46 (19.2) events (%)
[2]; subgroup post neoadjuvant group: CPS + EG score of 2, 3 or 4
  Invasive disease free survival Events (%): 55 (13.8)/96 (24.8) events (%)
[2]; subgroup post neoadjuvant group: CPS + EG score of 5 or 6
  Invasive disease free survival Events (%): 11 (50.0)/10 (66.7) events (%)
[2]; subgroup prior chemotherapy: Anthracycline and taxane regimen
  Invasive disease free survival Events (%): 101 (11.6)/168 (19.8) events (%)
[2]; subgroup prior chemotherapy: Anthracycline regimen (without taxane)
  Invasive disease free survival Events (%): 0 (0.0)/2 (15.4) events (%)
[2]; subgroup prior chemotherapy: Taxane regimen (without Anthracycline)
  Invasive disease free survival Events (%): 5 (11.6)/8 (15.4) events (%)
